The target of assay [1] is JAK2 (recombinant purified GST-tagged catalytic domain) (Homo sapiens (Human), UniProt O60674). Briefly: biochemical.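 Further: biochemical JAK kinase assay with HTRF detection.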
In assay [2] the target is JAK1 (recombinant purified GST-tagged catalytic domain) (Homo sapiens (Human), UniProt P23458). Briefly: biochemical.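 Further: biochemical assay with HTRF read-out.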

pIC50: −log10 of the molar value.

Chain of JAK1 (recombinant purified GST-tagged catalytic domain) (P23458 875-1153): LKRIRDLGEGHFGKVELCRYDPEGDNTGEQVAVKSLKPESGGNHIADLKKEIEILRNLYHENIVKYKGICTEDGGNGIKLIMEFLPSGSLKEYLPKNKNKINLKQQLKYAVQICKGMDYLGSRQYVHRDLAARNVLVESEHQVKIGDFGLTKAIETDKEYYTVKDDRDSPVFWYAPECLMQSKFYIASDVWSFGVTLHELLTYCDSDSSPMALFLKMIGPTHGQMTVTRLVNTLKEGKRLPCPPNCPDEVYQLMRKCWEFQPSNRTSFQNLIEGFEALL
Chain of JAK2 (recombinant purified GST-tagged catalytic domain) (O60674 849-1124): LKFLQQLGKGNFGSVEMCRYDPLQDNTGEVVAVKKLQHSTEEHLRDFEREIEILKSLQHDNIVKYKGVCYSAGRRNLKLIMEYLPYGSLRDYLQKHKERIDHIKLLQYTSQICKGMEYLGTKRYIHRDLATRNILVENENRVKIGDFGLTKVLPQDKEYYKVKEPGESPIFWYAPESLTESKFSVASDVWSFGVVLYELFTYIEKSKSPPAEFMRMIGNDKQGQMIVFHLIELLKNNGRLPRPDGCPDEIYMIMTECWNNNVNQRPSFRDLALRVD

Usually pIC50 stands for −log10 of the IC50, conventionally taken in molar units. With `N#C[C@H]1CCCC[C@@H]1n1cc(C(N)=O)c(Nc2ccc(S(=O)(=O)NC3CCCCC3)cc2)n1` (single isomer, unassigned) [Example 17-82, 1-[(1R,2R or 1S,2S)-2-cyanocyclohexyl]-3-{[4-(cyclohexylsulfamoyl)phenyl]amino}-1H-pyrazole-4-carboxamide], the pIC50 is 9.00 in assay [1] and 9.30 in assay [2].

On to `N#C[C@H]1CCCC[C@@H]1n1cc(C(N)=O)c(Nc2ccc(S(=O)(=O)NCc3ccccc3)cc2)n1` (single isomer, unassigned) [Example 17-83, 3-{[4-(benzylsulfamoyl)phenyl]amino}-1-[(1R,2R or 1S,2S)-2-cyanocyclohexyl]-1H-pyrazole-4-carboxamide], for which the figures for the pIC50 in assay [1] and in assay [2] were 9.05 and 9.70, respectively.

As to `N#C[C@H]1CCCC[C@@H]1n1cc(C(N)=O)c(Nc2ccc(S(=O)(=O)NCc3cccnc3)cc2)n1` (single isomer, unassigned) [Example 17-84, 1-[(1R,2R or 1S,2S)-2-cyanocyclohexyl]-3-({4-[(pyridin-3-ylmethyl)sulfamoyl]phenyl}amino)-1H-pyrazole-4-carboxamide], the pIC50 in assay [1] is 9.00; in assay [2], 9.52.

As to `N#C[C@H]1CCCC[C@@H]1n1cc(C(N)=O)c(Nc2ccc(S(=O)(=O)NCc3ccccn3)cc2)n1` (single isomer, unassigned) [Example 17-85, 1-[(1R,2R or 1S,2S)-2-cyanocyclohexyl]-3-({4-[(pyridin-2-ylmethyl)sulfamoyl]phenyl}amino)-1H-pyrazole-4-carboxamide], the values for the pIC50 in assay [1] and in assay [2] were 8.40 and 9.05, respectively.

For the compound `N#C[C@H]1CCCC[C@@H]1n1cc(C(N)=O)c(Nc2ccc(S(=O)(=O)NCc3ccncc3)cc2)n1` (single isomer, unassigned) [Example 17-86, 1-[(1R,2R or 1S,2S)-2-cyanocyclohexyl]-3-({4-[(pyridin-4-ylmethyl)sulfamoyl]phenyl}amino)-1H-pyrazole-4-carboxamide], the pIC50 was 9.02 in assay [1] and 9.60 in assay [2].

Turning to `N#C[C@H]1CCCC[C@@H]1n1cc(C(N)=O)c(Nc2ccc(S(=O)(=O)NCCN3CCCC3)cc2)n1` (single isomer, unassigned) [Example 17-87, 1-[(1R,2R or 1S,2S)-2-cyanocyclohexyl]-3-({4-[(2-pyrrolidin-1-ylethyl)sulfamoyl]phenyl}amino)-1H-pyrazole-4-carboxamide], the figures for the pIC50 in assay [1] and in assay [2] were 8.70 and 9.30, respectively.

With `Cc1cccc(C)c1NS(=O)(=O)c1ccc(Nc2nn([C@H]3CCCC[C@@H]3C#N)cc2C(N)=O)cc1` (single isomer, unassigned) [Example 17-88, 1-[(1R,2R or 1S,2S)-2-cyanocyclohexyl]-3-({4-[(2,6-dimethylphenyl)sulfamoyl]phenyl}amino)-1H-pyrazole-4-carboxamide], the pIC50 is 8.05 in assay [1] and 9.00 in assay [2].

With `CC(=O)N1CCN(S(=O)(=O)c2ccc(Nc3nn([C@H]4CCCC[C@@H]4C#N)cc3C(N)=O)cc2)CC1` (single isomer, unassigned) [Example 17-89, 3-({4-[(4-acetylpiperazin-1-yl)sulfonyl]phenyl}amino)-1-[(1R,2R or 1S,2S)-2-cyanocyclohexyl]-1H-pyrazole-4-carboxamide], the negative-log IC50 (pIC50) is 9.00 in assay [1] and 9.30 in assay [2].

For the compound `N#C[C@H]1CCCC[C@@H]1n1cc(C(N)=O)c(Nc2ccc(S(=O)(=O)NCc3ccc(Cl)cc3)cc2)n1` (single isomer, unassigned) [Example 17-90, 3-({4-[(4-chlorobenzyl)sulfamoyl]phenyl}amino)-1-[(1R,2R or 1S,2S)-2-cyanocyclohexyl]-1H-pyrazole-4-carboxamide], the pIC50 was 8.40 in assay [1] and 9.00 in assay [2].

Take `N#C[C@H]1CCCC[C@@H]1n1cc(C(N)=O)c(Nc2ccc(S(=O)(=O)NCc3ccccc3Cl)cc2)n1` (single isomer, unassigned) [Example 17-91, 3-({4-[(2-chlorobenzyl)sulfamoyl]phenyl}amino)-1-[(1R,2R or 1S,2S)-2-cyanocyclohexyl]-1H-pyrazole-4-carboxamide]: the pIC50 in assay [1] is 8.70; in assay [2] it was 9.30.

Regarding `N#C[C@H]1CCCC[C@@H]1n1cc(C(N)=O)c(Nc2ccc(S(=O)(=O)N3CCC4(CC3)OCCO4)cc2)n1` (single isomer, unassigned) [Example 17-92, 1-[(1R,2R or 1S,2S)-2-cyanocyclohexyl]-3-{[4-(1,4-dioxa-8-azaspiro[4.5]dec-8-ylsulfonyl)phenyl]amino}-1H-pyrazole-4-carboxamide], the pIC50 in assay [1] was 8.52; in assay [2] it was 9.05.

As to `N#C[C@H]1CCCC[C@@H]1n1cc(C(N)=O)c(Nc2ccc(S(=O)(=O)Nc3ccc(C(F)(F)F)cc3)cc2)n1` (single isomer, unassigned) [Example 17-95, 1-[(1R,2R or 1S,2S)-2-cyanocyclohexyl]-3-[(4-{[4-(trifluoromethyl)phenyl]sulfamoyl}phenyl)amino]-1H-pyrazole-4-carboxamide], the figures for the pIC50 in assay [1] and in assay [2] were 7.51 and 8.22, respectively.

As to `N#C[C@H]1CCCC[C@@H]1n1cc(C(N)=O)c(Nc2ccc(S(=O)(=O)NCc3ccc(C(F)(F)F)cc3)cc2)n1` (single isomer, unassigned) [Example 17-96, 1-[(1R,2R or 1S,2S)-2-cyanocyclohexyl]-3-[(4-{[4-(trifluoromethyl)benzyl]sulfamoyl}phenyl)amino]-1H-pyrazole-4-carboxamide], the pIC50 in assay [1] was 8.15; in assay [2], 8.70.

In the case of `COc1cccc(N2CCN(S(=O)(=O)c3ccc(Nc4nn([C@H]5CCCC[C@@H]5C#N)cc4C(N)=O)cc3)CC2)c1` (single isomer, unassigned) [Example 17-97, 1-[(1R,2R or 1S,2S)-2-cyanocyclohexyl]-3-[(4-{[4-(3-methoxyphenyl)piperazin-1-yl]sulfonyl}phenyl)amino]-1H-pyrazole-4-carboxamide], the pIC50 in assay [1] is 7.62; in assay [2] it was 8.05.

As for `COCCNS(=O)(=O)c1ccc(Nc2nn([C@H]3CCCC[C@@H]3C#N)cc2C(N)=O)cc1` (single isomer, unassigned) [Example 17-98, 1-[(1R,2R or 1S,2S)-2-cyanocyclohexyl]-3-({4-[(2-methoxyethyl)sulfamoyl]phenyl}amino)-1H-pyrazole-4-carboxamide], the pIC50 in assay [1] was 9.00; in assay [2], 9.60.

`N#C[C@H]1CCCC[C@@H]1n1cc(C(N)=O)c(Nc2ccc(C(F)(F)F)nc2)n1` (single isomer, unassigned) [Example 17-101, 1-[(1S,2S or 1R,2R)-2-cyanocyclohexyl]-3-{[6-(trifluoromethyl)pyridin-3-yl]amino}-1H-pyrazole-4-carboxamide]: the negative-log IC50 (pIC50) in assay [1] is 8.05; in assay [2], 8.70.

As for `N#C[C@H]1CCCC[C@@H]1n1cc(C(N)=O)c(Nc2ccc(Cl)cc2)n1` (single isomer, unassigned) [Example 17-107, 3-[(4-chlorophenyl)amino]-1-[(1S,2S or 1R,2R)-2-cyanocyclohexyl]-1H-pyrazole-4-carboxamide], the negative logarithm of the IC50 (pIC50) in assay [1] was 7.96; in assay [2] it was 9.02.

As to `N#C[C@H]1CCCC[C@@H]1n1cc(C(N)=O)c(Nc2ccc(Cl)cc2)n1` (single isomer, unassigned) [Example 17-108, 3-[(4-chlorophenyl)amino]-1-[(1S,2S or 1R,2R)-2-cyanocyclohexyl]-1H-pyrazole-4-carboxamide], the values for the negative-log IC50 (pIC50) in assay [1] and in assay [2] were 6.92 and 8.10, respectively.

Take `N#C[C@H]1CCCC[C@@H]1n1cc(C(N)=O)c(Nc2ccc(C(F)(F)F)nc2)n1` (single isomer, unassigned) [Example 17-109, 1-[(1S,2S or 1R,2R)-2-cyanocyclohexyl]-3-{[6-(trifluoromethyl)pyridin-3-yl]amino}-1H-pyrazole-4-carboxamide]: the pIC50 in assay [1] was 6.59; in assay [2], 7.30.

For `Cn1cc(-c2cncc(Nc3nn(C4CCCC[C@@H]4C#N)cc3C(N)=O)c2)cn1` (single isomer, unassigned) [Example 21-1, 1-[(1S,2S or 1R,2R)-2-Cyanocyclohexyl]-3-{[5-(1-methyl-1H-pyrazol-4-yl)pyridin-3-yl]amino}-1H-pyrazole-4-carboxamide], the values for the pIC50 in assay [1] and in assay [2] were 7.14 and 8.22, respectively.

As for `N#C[C@H]1C[C@H](O)CC[C@@H]1n1cc(C(N)=O)c(Nc2ccc(OC(F)(F)F)cc2)n1` (single isomer, unassigned) [Example 24, 1-((1S,2S or 1R,2R)-2-cyano-4(R)-hydroxycyclohexyl)-3-((4-(trifluoromethoxy)phenyl)amino)-1H-pyrazole-4-carboxamide], the pIC50 is 7.21 in assay [1] and 8.22 in assay [2].

For the compound `N#Cc1ccc(Nc2nn([C@H]3CC[C@@H](O)C[C@@H]3C#N)cc2C(N)=O)cc1` (single isomer, unassigned) [Example 25-4, 1-[(1S,2S,4R or 1R,2R,4S)-2-cyano-4-hydroxycyclohexyl]-3-[(4-cyanophenyl)amino]-1H-pyrazole-4-carboxamide], the pIC50 in assay [1] was 8.52; in assay [2], 9.26.

On to `N#C[C@H]1C[C@H](O)CC[C@@H]1n1cc(C(N)=O)c(Nc2ccc(C(F)(F)F)cc2)n1` (single isomer, unassigned) [Example 25-5, 1-[(1S,2S,4R or 1R,2R,4S)-2-cyano-4-hydroxycyclohexyl]-3-{[4-(trifluoromethyl)phenyl]amino}-1H-pyrazole-4-carboxamide], for which the pIC50 in assay [1] is 8.00; in assay [2], 9.00.

Turning to `N#C[C@H]1C[C@H](O)CC[C@@H]1n1cc(C(N)=O)c(Nc2ccc(Cl)c(Cl)c2)n1` (single isomer, unassigned) [Example 25-6, 1-[(1S,2S,4R or 1R,2R,4S)-2-cyano-4-hydroxycyclohexyl]-3-[(3,4-dichlorophenyl)amino]-1H-pyrazole-4-carboxamide], the negative logarithm of the IC50 (pIC50) in assay [1] is 7.70; in assay [2], 8.52.

These data come from patent US8962608B2, “Cycloalkylnitrile pyrazole carboxamides as janus kinase inhibitors” (Merck Sharp & Dohme Corp., priority 2011, dated 2015).
